Results from the supplement of paper PMC13380429.

How the values were obtained:
Conditions in all cases: 72 h
Caco-2 [1] = assay: cell viability relative to DMSO; higher = less toxic
Vero E6 [2] = assay: as above
Calu-3 [3] = assay: as above
HepG2 [4] = assay: as above
U2OS [5] = assay: as above
Caco-2 [6] = assay: relative viability EC50 (midpoint between 100% and the lowest measured viability); higher = less toxic
Vero E6 [7] = assay: as above
Calu-3 [8] = assay: as above
HepG2 [9] = assay: as above
U2OS [10] = assay: as above
Caco-2 [11] = assay: drug sensitivity score (DSS) for viability; higher = more toxic; extreme values may be limits of the assay
Vero E6 [12] = assay: as above
Calu-3 [13] = assay: as above
HepG2 [14] = assay: as above
U2OS [15] = assay: as above

Structure (SMILES)	cell viability (Caco-2 [1]; 1 nM) [%]	cell viability (Caco-2 [1]; 10 nM) [%]	cell viability (Caco-2 [1]; 100 nM) [%]	cell viability (Caco-2 [1]; 1000 nM) [%]	cell viability (Caco-2 [1]; 10000 nM) [%]	cell viability (Vero E6 [2]; 1 nM) [%]	cell viability (Vero E6 [2]; 10 nM) [%]	cell viability (Vero E6 [2]; 100 nM) [%]	cell viability (Vero E6 [2]; 1000 nM) [%]	cell viability (Vero E6 [2]; 10000 nM) [%]	cell viability (Calu-3 [3]; 1 nM) [%]	cell viability (Calu-3 [3]; 10 nM) [%]	cell viability (Calu-3 [3]; 100 nM) [%]	cell viability (Calu-3 [3]; 1000 nM) [%]	cell viability (Calu-3 [3]; 10000 nM) [%]	cell viability (HepG2 [4]; 1 nM) [%]	cell viability (HepG2 [4]; 10 nM) [%]	cell viability (HepG2 [4]; 100 nM) [%]	cell viability (HepG2 [4]; 1000 nM) [%]	cell viability (HepG2 [4]; 10000 nM) [%]	cell viability (U2OS [5]; 1 nM) [%]	cell viability (U2OS [5]; 10 nM) [%]	cell viability (U2OS [5]; 100 nM) [%]	cell viability (U2OS [5]; 1000 nM) [%]	cell viability (U2OS [5]; 10000 nM) [%]	relative viability EC50 (Caco-2 [6]) [µM]	relative viability EC50 (Vero E6 [7]) [µM]	relative viability EC50 (Calu-3 [8]) [µM]	relative viability EC50 (HepG2 [9]) [µM]	relative viability EC50 (U2OS [10]) [µM]	drug sensitivity score (Caco-2 [11])	drug sensitivity score (Vero E6 [12])	drug sensitivity score (Calu-3 [13])	drug sensitivity score (HepG2 [14])	drug sensitivity score (U2OS [15])
C[C@@]12CC[C@@H]3[C@@](CC[C@H]4[C@@]3(C)CCC[C@@]4(C)C(=O)O)(CC1=O)C2 [isosteviol]	87.5	99.9	89.2	95.2	109	97.8	99.6	98.5	97.5	106	103	105	112	110	94.5	94.4	91.4	100	99.5	107	101	101	96.8	96.5	98.1	> 10	> 10	> 10	> 10	> 10	0	0	0	0	0
N#CCCCSC(=N)N [kevetrin]	92	99.3	96.6	99.8	99.7	96.6	98.4	92.6	101	98.9	108	90.9	92.8	105	93.1	107	97.4	101	93.6	101	97.9	102	96.3	97.5	96.3	> 10	> 10	> 10	> 10	> 10	0	0	0	0	0
CC(=O)O[C@H]1C[C@H](O[C@H]2[C@@H](O)C[C@H](O[C@H]3[C@@H](O)C[C@H](O[C@H]4CC[C@@]5(C)[C@H](CC[C@@H]6[C@@H]5C[C@@H](O)[C@]5(C)[C@@H](C7=CC(=O)OC7)CC[C@]65O)C4)O[C@@H]3C)O[C@@H]2C)O[C@H](C)[C@H]1O[C@@H]1O[C@H](CO)[C@@H](O)[C@H](O)[C@H]1O [lanatoside-C]	102	99	66.4	17.6	18.4	92.5	92	23.4	0.8	0.9	107	95.1	80.7	30.6	18.7	99.4	97.7	83.3	30.9	5.9	101	97.3	87.4	3.4	6.7	0.116	0.0458	0.248	0.396	0.211	19.5	27.8	15.2	15	19.5
CC1(C)OC[C@@H](COC(=O)CCc2ccc(OC[C@@H](O)CNCCNC(=O)N3CCOCC3)cc2)O1 [landiolol]	111	103	98.2	108	107	96.2	97.4	93.4	94.6	96.6	105	97.7	97.2	104	101	81.9	106	104	86.3	96.8	98.4	99.2	96.9	101	97.1	> 10	> 10	> 10	> 10	> 10	0	0	0	0	0
CC1(C)Cc2c(-c3ccccc3)c(-c3ccc(Cl)cc3)c(CC(=O)O)n2C1 [licofelone]	94.8	94.9	87.5	96.9	85.3	102	102	102	107	99.5	104	101	100	96	95	110	102	95.4	101	93.1	101	101	97.5	102	90.9	> 10	> 10	> 10	> 10	> 10	0.1	0	0	0	0
